# Like-named read-outs stand apart in the source and are kept apart here.
# Tests used:
# MDR1 (P-gp) [1] = target: T1, MDR1 (P-gp) (Homo sapiens (Human), UniProt P08183); experiment: MDR1 transfected MDCKII canine Mdr1 knockout permeability/efflux, Assay 7; conditions: dog, MDCK-MDR1
# Procedure: (§1) Both MDR1 transfected LLC-PK1 (Assay 6) and MDR1 transfected MDCKII canine Mdr1 knockout cells (Assay 7) were cultured and plated according to manufacturer's recommendations with the exception that the passage media for the MDR1 transfected LLC-PK1 cell line contained only 2% fetal bovine serum so as to extend passage time out to seven days.
# (§2) Both positive and negative controls were used to assess functionality of P-gp or BCRP efflux in the assays. Stock solutions for assay controls and the test article were prepared in DMSO for final test concentration of 1 μM. Final organic concentration in the assay was 1%. All dosing solutions contained 10 μM lucifer yellow to monitor MDCKII cell monolayer integrity.
# (§3) For the apical to basolateral determination (A to B), 75 μL of the test article in transport buffer were added to the apical side of the individual transwells and 250 μL of basolateral media, without compound or lucifer yellow, were added to each well. For the basolateral to apical determination (B to A), 250 μL of test article in transport buffer were added to each well and 75 μL transport buffer, without compound or lucifer yellow, were added to each transwell. All tests were performed in triplicate, and each compound was tested for both apical to basolateral and basolateral to apical transport. The plates were incubated for 2 hours on a Lab-Line Instruments Titer Orbital Shaker (VWR, West Chester, PA) at 50 rpm and 37° C. with 5% CO2. All culture plates were removed from the incubator, 50 μL of media were removed from the apical and basolateral portion of each well, and added to 150 μL of 1 μM labetalol in 2:1 acetonitrile (ACN): H2O, v/v.
# (§4) The plates were read using a Molecular Devices (Sunnyvale, CA) Gemini Fluorometer to evaluate the lucifer yellow concentrations at excitation/emission wavelengths of 425/535 nm. These values were accepted when found to be below 2% for apical to basolateral and 5% basolateral to apical flux across the MDR1-transfected LLC-PK1 or BCRP-transfected MDCKII cell monolayers. The plates were sealed, and the contents of each well analyzed by LC MS/MS. The compound concentrations were determined from the ratio of the peak areas of the compound to the internal standard (labetalol) in comparison to the dosing solution.
# (§5) A MDS Sciex API 4000 (Applied Biosystems, Foster City, CA) mass spectrometer was used for detection of the analytes in the ion spray positive mode. Analyte responses were measured by multiple reaction monitoring (“MRM”) of transitions unique to each compound (the protonated precursor ion and selected product ions for each test article and m/z 329 to m/z 162 for labetalol, the internal standard.
# (§6) The total run time, including re-equilibration, for a single injection was 1.2 minutes. […] The total run time, including re-equilibration, for a single injection was 0.61 minutes.
# (§7) An efflux ratio is calculated from the mean apical to basolateral (A-B) Papp data and basolateral to apical (B-A) Papp data: Efflux ratio=Papp(B−A)/Papp(A−B)
# ErbB2 WT = ErbB2 WT (Homo sapiens (Human), UniProt P04626); experiment: ErbB enzyme assay (CisBio HTRF KinEASE-TK), Assay 2; assay type: biochemical
# How it was run: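 Readout is HTRF KinEASE-TK, using Sa-XL665 and cryptate antibody for 1 h at 22 °C, as percent of control between DMSO-only (100) and pre-quenched (0) reactions. The kinase reaction runs 30 min at 22 °C with 1 mM ATP and 250 nM biotinylated TK substrate, in HEPES pH 7.4 with MgCl2 and 2% DMSO.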
# EGFR = EGFR (Homo sapiens (Human), UniProt P00533); experiment: ErbB enzyme assay (CisBio HTRF KinEASE-TK), Assay 3; assay type: biochemical
# Chain of EGFR (P00533 25-1210): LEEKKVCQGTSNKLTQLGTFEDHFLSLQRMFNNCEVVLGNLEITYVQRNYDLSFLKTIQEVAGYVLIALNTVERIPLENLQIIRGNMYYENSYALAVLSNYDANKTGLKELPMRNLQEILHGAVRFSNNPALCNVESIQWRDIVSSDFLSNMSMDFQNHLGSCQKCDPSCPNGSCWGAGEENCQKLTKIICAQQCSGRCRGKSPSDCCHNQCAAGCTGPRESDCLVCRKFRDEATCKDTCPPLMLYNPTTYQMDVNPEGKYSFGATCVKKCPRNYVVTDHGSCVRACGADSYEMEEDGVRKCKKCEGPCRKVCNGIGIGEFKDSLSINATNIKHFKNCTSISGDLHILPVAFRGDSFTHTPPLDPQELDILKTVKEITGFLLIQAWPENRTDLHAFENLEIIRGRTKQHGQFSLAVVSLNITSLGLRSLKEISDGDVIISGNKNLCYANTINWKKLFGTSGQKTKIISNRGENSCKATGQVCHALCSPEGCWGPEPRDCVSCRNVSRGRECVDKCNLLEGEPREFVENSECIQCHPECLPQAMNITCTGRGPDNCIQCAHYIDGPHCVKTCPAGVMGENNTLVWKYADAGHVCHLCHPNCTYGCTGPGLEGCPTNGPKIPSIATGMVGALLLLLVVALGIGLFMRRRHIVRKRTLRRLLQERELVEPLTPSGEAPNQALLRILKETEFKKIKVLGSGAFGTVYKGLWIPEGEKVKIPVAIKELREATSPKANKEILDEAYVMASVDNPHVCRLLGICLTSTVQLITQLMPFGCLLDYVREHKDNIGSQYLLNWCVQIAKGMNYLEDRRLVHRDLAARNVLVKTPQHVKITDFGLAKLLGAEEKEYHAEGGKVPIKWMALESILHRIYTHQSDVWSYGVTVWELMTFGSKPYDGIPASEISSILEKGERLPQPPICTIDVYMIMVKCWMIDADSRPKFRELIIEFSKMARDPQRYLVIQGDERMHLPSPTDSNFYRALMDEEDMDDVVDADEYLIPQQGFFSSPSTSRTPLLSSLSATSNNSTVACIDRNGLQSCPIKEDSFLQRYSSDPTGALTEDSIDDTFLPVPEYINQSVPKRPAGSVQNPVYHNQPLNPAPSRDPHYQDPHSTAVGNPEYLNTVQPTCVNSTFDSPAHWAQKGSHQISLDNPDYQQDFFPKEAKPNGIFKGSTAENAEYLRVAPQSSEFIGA
# How it was run: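 First, enzyme was reacted with compound, 1 mM ATP and 250 nM biotinylated tyrosine-kinase peptide for 30 min at 22 °C at pH 7.4. Next, streptavidin-XL665 and cryptate antibody were added for 1 h. Finally, HTRF ratios were converted to POC and fitted to yield IC50.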
# EGFR wild type (EGFR WT) = EGFR wild type (EGFR WT) (Homo sapiens (Human), UniProt P00533); experiment: Cellular phosphorylation assay, EGF-stimulated EGFR phosphorylation in engineered NIH 3T3 cells, Phospho-EGFR DuoSet IC ELISA, Assay 5; assay type: cell-based
# How it was run: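 Phospho-EGFR ELISA on lysates of engineered NIH 3T3 EGFR WT cells, IC50 derived from concentration curves. Cells plated at 20,000/well overnight, given compound dilutions 1 h at 37 °C, then rEGF 100 ng/ml for a further 10 min before lysis.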
# [2] = target: ErbB2 insYVMA (HER2-YVMA, SEQ ID NO: 2) (Homo sapiens, UniProt P04626, INS775YVMA/P1170A); experiment: biochemical; conditions: ErbB2 insYVMA enzyme assay
# [3] = target: ErbB2 with Exon 20 YVMA insertion (HER2-YVMA) (Homo sapiens (Human), UniProt P04626, INS775YVMA); experiment: Cellular phosphorylation assay, constitutive ErbB2 phosphorylation (Y1196) in engineered NIH 3T3 cells, Assay 4; assay type: cell-based
# Chain of ErbB2 with Exon 20 YVMA insertion (HER2-YVMA) (P04626 other isoform, or with tags, fused parts or gaps ins YVMA behind 775): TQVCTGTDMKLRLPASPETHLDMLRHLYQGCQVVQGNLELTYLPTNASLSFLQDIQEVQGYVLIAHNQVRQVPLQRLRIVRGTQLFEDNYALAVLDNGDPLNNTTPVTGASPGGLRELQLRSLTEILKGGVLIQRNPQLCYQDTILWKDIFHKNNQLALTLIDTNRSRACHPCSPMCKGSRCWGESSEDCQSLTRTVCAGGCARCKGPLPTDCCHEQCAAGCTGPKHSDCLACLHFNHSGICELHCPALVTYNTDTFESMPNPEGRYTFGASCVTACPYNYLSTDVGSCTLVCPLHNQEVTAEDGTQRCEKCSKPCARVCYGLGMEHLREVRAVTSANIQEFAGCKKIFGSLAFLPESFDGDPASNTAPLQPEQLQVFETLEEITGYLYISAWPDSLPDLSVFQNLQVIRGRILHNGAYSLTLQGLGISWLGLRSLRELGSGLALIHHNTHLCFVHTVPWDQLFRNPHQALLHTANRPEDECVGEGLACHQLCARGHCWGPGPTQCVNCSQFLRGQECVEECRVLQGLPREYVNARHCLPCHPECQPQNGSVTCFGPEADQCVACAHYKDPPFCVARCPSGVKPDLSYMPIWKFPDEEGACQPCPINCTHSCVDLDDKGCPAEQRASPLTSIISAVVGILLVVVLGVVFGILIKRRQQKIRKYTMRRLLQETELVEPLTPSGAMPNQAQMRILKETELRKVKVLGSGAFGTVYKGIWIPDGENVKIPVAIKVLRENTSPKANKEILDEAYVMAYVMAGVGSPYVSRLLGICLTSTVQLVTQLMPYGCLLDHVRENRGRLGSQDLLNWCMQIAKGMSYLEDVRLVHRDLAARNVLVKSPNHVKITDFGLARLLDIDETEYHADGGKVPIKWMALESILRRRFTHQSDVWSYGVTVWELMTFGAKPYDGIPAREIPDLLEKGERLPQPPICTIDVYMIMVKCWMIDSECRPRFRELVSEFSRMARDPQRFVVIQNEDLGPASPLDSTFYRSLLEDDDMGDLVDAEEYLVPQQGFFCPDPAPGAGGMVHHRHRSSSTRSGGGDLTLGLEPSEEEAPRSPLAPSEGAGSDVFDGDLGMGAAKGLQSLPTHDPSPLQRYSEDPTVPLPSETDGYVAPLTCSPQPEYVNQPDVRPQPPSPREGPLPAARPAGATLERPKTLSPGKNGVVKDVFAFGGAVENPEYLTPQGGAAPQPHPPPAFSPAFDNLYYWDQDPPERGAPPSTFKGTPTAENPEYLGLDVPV
# How it was run: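 In-cell Western in NIH 3T3 cells carrying ErbB2 exon 20 YVMA insertion, with no ligand stimulation. One hour compound exposure at 37 °C before fixation and anti-pY1196 plus GAPDH staining with dual-wavelength fluorescence. IC50 derived after GAPDH normalization.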
# MDR1 (P-gp) [4] = target: T1, MDR1 (P-gp); experiment: MDR1 transfected LLC-PK1 permeability/efflux, Assay 6; conditions: pig, LLC-PK1, Assay 6 Pe Ratio, efflux ratio Papp(B-A)/Papp(A-B), MDR1 transfected LLC-PK1
# Procedure: as §1, §2, §3, §4, §5, §6, §7
# BCRP = BCRP (Homo sapiens (Human), UniProt Q9UNQ0); experiment: BCRP transfected MDCKII canine Mdr1 knockout permeability/efflux, Assay 9; conditions: dog, Assay 9 Pe Ratio, efflux ratio Papp(B-A)/Papp(A-B), BCRP transfected MDCKII canine Mdr1 knockout
# Chain of BCRP (Q9UNQ0 whole entry): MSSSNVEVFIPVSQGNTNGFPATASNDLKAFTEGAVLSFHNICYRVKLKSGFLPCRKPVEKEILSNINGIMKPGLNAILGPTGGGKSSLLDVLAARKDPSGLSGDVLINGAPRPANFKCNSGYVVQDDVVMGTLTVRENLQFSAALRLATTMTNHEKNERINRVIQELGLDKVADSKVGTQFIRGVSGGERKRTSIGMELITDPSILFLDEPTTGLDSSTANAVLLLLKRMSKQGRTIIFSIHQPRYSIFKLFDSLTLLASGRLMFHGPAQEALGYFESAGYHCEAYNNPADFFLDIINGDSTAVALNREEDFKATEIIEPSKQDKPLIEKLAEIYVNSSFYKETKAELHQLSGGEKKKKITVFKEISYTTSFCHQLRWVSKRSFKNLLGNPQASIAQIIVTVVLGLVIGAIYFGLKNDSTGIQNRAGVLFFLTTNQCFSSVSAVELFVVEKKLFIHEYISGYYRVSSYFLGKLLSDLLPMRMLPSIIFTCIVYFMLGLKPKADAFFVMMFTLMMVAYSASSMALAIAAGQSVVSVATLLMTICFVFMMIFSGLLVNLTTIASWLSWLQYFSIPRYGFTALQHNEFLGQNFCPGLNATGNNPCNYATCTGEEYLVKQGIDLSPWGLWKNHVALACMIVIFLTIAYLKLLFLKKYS
# Procedure: BCRP transfected MDCKII cells (Assay 8) and BCRP transfected MDCKII canine Mdr1 knockout cells (Assay 9) were cultured and plated according to manufacturer's recommendations.
# as §2, §3
# The plates were read using a Molecular Devices (Sunnyvale, CA) Gemini Fluorometer to evaluate the lucifer yellow concentrations at excitation/emission wavelengths of 425/535 nm. […] The plates were sealed, and the contents of each well analyzed by LC MS/MS. The compound concentrations were determined from the ratio of the peak areas of the compound to the internal standard (labetalol) in comparison to the dosing solution.
# as §5, §6, §7
# Chain of ErbB2 WT (P04626 23-1255): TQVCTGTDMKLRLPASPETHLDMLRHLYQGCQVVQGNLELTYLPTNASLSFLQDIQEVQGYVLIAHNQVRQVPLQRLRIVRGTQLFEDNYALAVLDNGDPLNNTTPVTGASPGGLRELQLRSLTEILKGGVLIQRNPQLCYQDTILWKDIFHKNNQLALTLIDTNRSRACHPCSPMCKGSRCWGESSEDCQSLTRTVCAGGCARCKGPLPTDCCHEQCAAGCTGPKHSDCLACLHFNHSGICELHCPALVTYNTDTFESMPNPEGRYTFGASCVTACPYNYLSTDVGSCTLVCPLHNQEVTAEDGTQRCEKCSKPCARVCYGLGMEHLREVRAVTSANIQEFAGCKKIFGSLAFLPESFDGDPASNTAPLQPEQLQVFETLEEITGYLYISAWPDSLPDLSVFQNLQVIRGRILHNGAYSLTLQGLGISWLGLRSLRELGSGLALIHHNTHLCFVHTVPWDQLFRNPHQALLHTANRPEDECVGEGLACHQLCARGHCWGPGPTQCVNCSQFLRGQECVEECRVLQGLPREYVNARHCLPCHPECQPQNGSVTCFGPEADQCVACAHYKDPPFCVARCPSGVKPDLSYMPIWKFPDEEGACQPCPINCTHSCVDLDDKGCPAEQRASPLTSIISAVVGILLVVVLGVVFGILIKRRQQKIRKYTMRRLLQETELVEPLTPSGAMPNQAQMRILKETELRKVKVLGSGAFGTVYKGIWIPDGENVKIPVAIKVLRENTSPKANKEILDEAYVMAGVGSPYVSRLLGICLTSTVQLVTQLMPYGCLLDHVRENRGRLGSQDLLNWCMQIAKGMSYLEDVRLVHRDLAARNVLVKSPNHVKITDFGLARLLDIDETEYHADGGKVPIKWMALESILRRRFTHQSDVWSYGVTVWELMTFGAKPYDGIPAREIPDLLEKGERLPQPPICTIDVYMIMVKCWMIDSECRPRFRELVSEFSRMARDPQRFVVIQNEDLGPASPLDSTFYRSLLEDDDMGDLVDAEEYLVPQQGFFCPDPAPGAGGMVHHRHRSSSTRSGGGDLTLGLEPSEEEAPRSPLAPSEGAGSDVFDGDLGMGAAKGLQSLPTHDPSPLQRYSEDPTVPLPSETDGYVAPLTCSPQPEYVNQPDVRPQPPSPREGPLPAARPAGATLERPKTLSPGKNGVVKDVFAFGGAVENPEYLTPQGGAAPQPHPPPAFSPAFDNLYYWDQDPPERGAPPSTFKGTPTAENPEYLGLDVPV
Structure (SMILES),"efflux ratio at 2 h, 1 μM (MDR1 (P-gp) [1])",IC50 (ErbB2 WT) [nM],IC50 (EGFR) [nM],IC50 (EGFR wild type (EGFR WT)) [nM],IC50 ([2]; read-out: Assay 1 IC50) [nM],IC50 [3] [nM],IC50 ([2]; Assay 1 IC50 (nM)) [nM],"efflux ratio at 2 h, 1 μM (MDR1 (P-gp) [4])","efflux ratio at 2 h, 1 μM (BCRP)"
"Cc1cc(Nc2ncnc3cnc(N4C[C@H]5CCS(=O)(=O)[C@H]5C4)nc23)ccc1Oc1ccc2c(c1)ncn2C (racemic) [Example 92, rac-(3aR,6aR)-5-(8-((3-methyl-4-((1-methyl-1H-benzo[d]imidazol-5-yl)oxy)phenyl)amino)pyrimido[5,4-d]pyrimidin-2-yl)hexahydro-2H-thieno[2,3-c]pyrrole 1,1-dioxide]",3.8,18.9,8780,≥ 5000,10.7,23.3,,,
"CO[C@@H]1CN(c2ncc3ncnc(Nc4ccc(Oc5ccc6c(c5)ncn6C)c(C)c4)c3n2)C[C@H]1O (racemic) [Example 107, ±(3R,4R)-4-methoxy-1-(8-((3-methyl-4-((1-methyl-1H-benzo[d]imidazol-5-yl)oxy)phenyl)amino)pyrimido[5,4-d]pyrimidin-2-yl)pyrrolidin-3-ol]",3.2,15.5,≥ 10000,≥ 5000,30.8,31.3,,,
"Cc1cc(Nc2ncnc3cnc(N(C)[C@@H]4CNC[C@@H]4F)nc23)ccc1Oc1ccc2c(c1)ncn2C [Example 94, N2-((3R,4S)-4-fluoropyrrolidin-3-yl)-N2-methyl-N8-(3-methyl-4-((1-methyl-1H-benzo[d]imidazol-5-yl)oxy)phenyl)pyrimido[5,4-d]pyrimidine-2,8-diamine]",12,31.3,4360,≥ 5000,21.3,20.3,,,
"Cc1c(Oc2ccc3c(c2)ncn3C)ccc(Nc2ncnc3cnc(N4CC[C@](C)(O)C4)nc23)c1F [Example 97, (S)-1-(8-((2-fluoro-3-methyl-4-((1-methyl-1H-benzo[d]imidazol-5-yl)oxy)phenyl)amino)pyrimido[5,4-d]pyrimidin-2-yl)-3-methylpyrrolidin-3-ol]",2,31,≥ 10000,≥ 5000,14.2,47.5,,,
"CN(CCC(C)(C)O)c1ncc2ncnc(Nc3ccc(Oc4ccn5ncnc5c4)c(Cl)c3)c2n1 [Example 101, 4-((8-((4-([1,2,4]triazolo[1,5-a]pyridin-7-yloxy)-3-chlorophenyl)amino)pyrimido[5,4-d]pyrimidin-2-yl)(methyl)amino)-2-methylbutan-2-ol]",1.5,14.7,≥ 10000,≥ 5000,15.4,8.2,,,
"Cn1cnc2cc(Oc3ccc(Nc4ncnc5cnc(N6CCC6)nc45)cc3Cl)ccc21.O=C(O)C(F)(F)F [Example 148, 6-(azetidin-1-yl)-N-(3-chloro-4-((1-methyl-1H-benzo[d]imidazol-5-yl)oxy)phenyl)pyrimido[5,4-d]pyrimidin-4-amine 2,2,2-trifluoroacetate]",1.3,34,≥ 10000,≥ 5000,,13,24.3,,
"Cn1cnc2cc(Oc3ccc(Nc4ncnc5cnc(N6CC7C8CCC(O8)C7C6)nc45)cc3Cl)ccc21.O=C(O)C(F)(F)F (centres unmarked) [Example 149, N-(3-chloro-4-((1-methyl-1H-benzo[d]imidazol-5-yl)oxy)phenyl)-6-(octahydro-2H-4,7-epoxyisoindol-2-yl)pyrimido[5,4-d]pyrimidin-4-amine]",1,102,≥ 10000,≥ 5000,,26.5,99,,
"Cn1cnc2cc(Oc3ccc(Nc4ncnc5cnc(N6CCN7CCOC[C@H]7C6)nc45)cc3Cl)ccc21.O=C(O)C(F)(F)F.O=C(O)C(F)(F)F [Example 150, (R)—N-(3-chloro-4-((1-methyl-1H-benzo[d]imidazol-5-yl)oxy)phenyl)-6-(hexahydropyrazino[2,1-c][1,4]oxazin-8(1H)-yl)pyrimido[5,4-d]pyrimidin-4-amine bis(2,2,2-trifluoroacetate)]",2.2,22.3,≥ 10000,≥ 5000,,9.1,32,,
"Cn1cnc2cc(Oc3ccc(Nc4ncnc5cnc(N6CCN7CCOC[C@@H]7C6)nc45)cc3Cl)ccc21.O=C(O)C(F)(F)F.O=C(O)C(F)(F)F [Example 151, (S)—N-(3-chloro-4-((1-methyl-1H-benzo[d]imidazol-5-yl)oxy)phenyl)-6-(hexahydropyrazino[2,1-c][1,4]oxazin-8(1H)-yl)pyrimido[5,4-d]pyrimidin-4-amine bis(2,2,2-trifluoroacetate)]",1.2,61.4,≥ 10000,≥ 5000,,18.8,24.6,,
"Cc1cc(Nc2ncnc3cnc(N4CC[C@H](F)[C@@H](O)C4)nc23)ccc1Oc1ccc2c(c1)ncn2C [Example 162, (3S,4S)-4-fluoro-1-(8-((3-methyl-4-((1-methyl-1H-benzo[d]imidazol-5-yl)oxy)phenyl)amino)pyrimido[5,4-d]pyrimidin-2-yl)piperidin-3-ol]",2.8,31.6,7360,≥ 5000,19.4,36.4,,,
"Cc1cc(Nc2ncnc3cnc(N(C)C[C@H](C)O)nc23)ccc1Oc1ccc2c(c1)ncn2C [Example 195, (S)-1-(methyl(8-((3-methyl-4-((1-methyl-1H-benzo[d]imidazol-5-yl)oxy)phenyl)amino)pyrimido[5,4-d]pyrimidin-2-yl)amino)propan-2-ol]",4.6,,7290,≥ 5000,17.3,10.1,,,
Cc1cc(Nc2ncnc3cnc(N4CC[C@@H](C(F)F)C4)nc23)ccc1Oc1ccc2c(c1)ncn2C [Example 253],,171,≥ 10000,≥ 5000,93,39.3,,1.2,2
Cc1cc(Nc2ncnc3cnc(N4C[C@H]5C[C@@H]4CO5)nc23)ccc1Oc1ccc2c(c1)ncn2C [Example 262],,116,≥ 10000,≥ 5000,22.3,44,,1.7,2.7
Cc1cc(Nc2ncnc3cnc(N4CCOC(C)(C)C4)nc23)ccc1Oc1ccc2c(c1)ncn2C [Example 272],,104,9000,≥ 5000,67.3,40.2,,1.6,0.6
Cc1cc(Nc2ncnc3cnc(N4C[C@@H]5C[C@H]4CO5)nc23)ccc1Oc1ccc2c(c1)ncn2C [Example 274],,38.8,3250,≥ 5000,30.7,12.1,,2.4,1.7
Cc1cc(Nc2ncnc3cnc(N4CC5(CCO5)C4)nc23)ccc1Oc1ccc2c(c1)ncn2C [Example 282],,83.9,≥ 10000,≥ 5000,40,26.3,,1.9,3.5
Cc1cc(Nc2ncnc3cnc(N(C)CC4CCO4)nc23)ccc1Oc1ccc2c(c1)ncn2C (centres unmarked) [Example 350],,83.9,≥ 10000,≥ 5000,40,26.3,,1.9,3.5

# From patent US11834453B2, “Substituted pyrimido[5,4-d]pyrimidines as HER2 inhibitors” (Array BioPharma Inc., priority 2020, dated 2023)
